According to patent US20170008888A1 (KYORIN PHARMACEUTICAL CO., LTD., priority 2014, published 2017):
Read-outs that look alike come from different tables or passages of the source.

Experiments:
AurB or AurC = experiment: Probe-based (AX9989) kinase profiling in Jurkat lysate: AurB or AurC; type: binding; conditions: for AurB or AurC Inhibition % at indicated screening concentration: screening concentration 1 μM
Summary of the method: (§1)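 Read-out: LC/MS intensity of desthiobiotinylated kinase active-site peptides, percent inhibition normalized to no-compound lysate. Jurkat lysate with 20 mM MnCl2 received compound for 15 min at room temperature, then 5 μM AX9989 probe; duplicates.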

human PBMCs = experiment: Human PBMC TNF-α response to endotoxin (ELISA); type: cell-based; conditions: 0.1 μg/ml LPS 16 h, read-out: EC50 for the inhibition of the human PBMC TNF-α response to endotoxin, ave. ± S.D.
Summary of the method: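 PBMCs at 2e6 cells/ml in RPMI 1640 with 10% charcoal-dextran-treated FBS were pre-treated 1 h at 37 °C with compound (4-point 1:5 dilution from 10 μM). Stimulation with 0.1 μg/ml E. coli 0111:B4 LPS for 16 h; TNF-α measured by ELISA (A450) in 25-fold diluted supernatant.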

ERK5 = biological target: T1, ERK5 (Homo sapiens, UniProt Q13164); experiment: Probe-based (AX9989 acyl phosphate ATP probe) kinase profiling in Jurkat lysate: ERK5; type: binding; conditions: for IC50: Jurkat lysate
T1 construct: screened for activity against several kinases in Jurkat cells; endogenous in cells; host or cells: Jurkat cell lysate
Summary of the method: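 ERK5 IC50 values came from percent inhibition at the screening concentration, measured as loss of LC/MS signal of probe-labelled active-site peptides. Compound was added for 15 min at room temperature to Jurkat lysate (5 mg/ml, 20 mM MnCl2) before labelling with AX9989 ATP acyl phosphate probe at 5 μM.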

TAO2 = biological target: T2, TAO2 (Homo sapiens, UniProt Q9UL54); experiment: Probe-based (AX9989) kinase profiling in Jurkat lysate: TAO2; type: binding
T2 construct: screened for activity against several kinases in Jurkat cells; endogenous in cells; host or cells: Jurkat cell lysate
T2 sequence (Q9UL54 1-1235): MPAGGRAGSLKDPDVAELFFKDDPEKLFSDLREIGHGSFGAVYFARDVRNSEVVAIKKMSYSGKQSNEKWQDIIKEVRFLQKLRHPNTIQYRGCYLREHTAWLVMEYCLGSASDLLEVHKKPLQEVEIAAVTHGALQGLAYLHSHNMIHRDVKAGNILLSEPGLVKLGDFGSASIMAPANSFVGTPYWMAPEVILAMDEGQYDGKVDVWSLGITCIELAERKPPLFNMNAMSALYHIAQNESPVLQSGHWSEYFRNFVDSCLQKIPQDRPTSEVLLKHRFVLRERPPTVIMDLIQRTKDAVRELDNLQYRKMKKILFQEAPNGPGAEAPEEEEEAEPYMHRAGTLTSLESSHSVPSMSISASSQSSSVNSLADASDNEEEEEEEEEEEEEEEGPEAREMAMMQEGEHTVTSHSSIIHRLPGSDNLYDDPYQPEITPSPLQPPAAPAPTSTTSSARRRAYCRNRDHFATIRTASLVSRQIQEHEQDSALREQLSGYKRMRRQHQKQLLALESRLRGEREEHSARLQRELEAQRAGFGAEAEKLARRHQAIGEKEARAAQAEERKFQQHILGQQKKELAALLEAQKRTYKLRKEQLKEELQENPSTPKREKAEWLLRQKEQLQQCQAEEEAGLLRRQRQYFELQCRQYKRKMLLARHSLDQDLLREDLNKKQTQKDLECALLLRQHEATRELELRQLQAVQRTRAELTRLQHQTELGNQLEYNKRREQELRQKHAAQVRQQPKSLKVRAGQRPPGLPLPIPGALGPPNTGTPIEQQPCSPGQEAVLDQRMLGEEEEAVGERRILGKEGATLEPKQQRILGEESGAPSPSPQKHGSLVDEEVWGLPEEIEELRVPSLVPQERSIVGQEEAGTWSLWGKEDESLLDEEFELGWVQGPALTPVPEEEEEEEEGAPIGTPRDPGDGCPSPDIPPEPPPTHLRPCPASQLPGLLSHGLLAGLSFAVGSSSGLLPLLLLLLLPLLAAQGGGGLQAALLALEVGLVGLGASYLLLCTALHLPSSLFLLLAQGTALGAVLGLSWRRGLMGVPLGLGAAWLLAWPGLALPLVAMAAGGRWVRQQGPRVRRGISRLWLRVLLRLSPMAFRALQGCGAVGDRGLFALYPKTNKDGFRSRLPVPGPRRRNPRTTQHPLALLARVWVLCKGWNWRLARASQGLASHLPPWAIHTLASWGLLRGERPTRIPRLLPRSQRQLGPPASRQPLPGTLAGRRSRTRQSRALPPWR
Summary of the method: as §1

AurA = biological target: T3, AurA (Homo sapiens, UniProt O14965); experiment: Probe-based (AX9989) kinase profiling in Jurkat lysate: AurA; type: binding
T3 construct: screened for activity against several kinases in Jurkat cells; endogenous in cells; host or cells: Jurkat cell lysate
T3 sequence (O14965 1-403): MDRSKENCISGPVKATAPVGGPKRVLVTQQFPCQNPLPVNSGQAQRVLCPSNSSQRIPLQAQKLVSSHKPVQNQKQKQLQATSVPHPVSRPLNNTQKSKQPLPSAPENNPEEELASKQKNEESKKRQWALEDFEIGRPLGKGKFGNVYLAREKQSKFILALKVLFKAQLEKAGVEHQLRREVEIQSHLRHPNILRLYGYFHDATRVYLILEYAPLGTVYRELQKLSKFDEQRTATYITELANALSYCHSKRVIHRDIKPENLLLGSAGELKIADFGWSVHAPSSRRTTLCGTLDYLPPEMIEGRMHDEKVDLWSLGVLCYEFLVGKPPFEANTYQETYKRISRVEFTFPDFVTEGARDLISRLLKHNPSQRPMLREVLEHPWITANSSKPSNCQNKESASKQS
Summary of the method: as §1

JAK1 = biological target: T4, JAK1 (Homo sapiens, UniProt P23458); experiment: Probe-based (AX9989) kinase profiling in Jurkat lysate: JAK1; type: binding
T4 construct: screened for activity against several kinases in Jurkat cells; endogenous in cells; host or cells: Jurkat cell lysate
Summary of the method: as §1

ABL or ARG = experiment: Probe-based (AX9989) kinase profiling in Jurkat lysate: ABL or ARG; type: binding; conditions: for ABL or ARG Inhibition % at indicated screening concentration: screening concentration 1 μM
Summary of the method: as §1

ACK = biological target: T5, ACK (Homo sapiens, UniProt Q07912); experiment: Probe-based (AX9989) kinase profiling in Jurkat lysate: ACK; type: binding
T5 construct: screened for activity against several kinases in Jurkat cells; endogenous in cells; host or cells: Jurkat cell lysate
Summary of the method: as §1

AMPKa1 or AMPKa2 = experiment: Probe-based (AX9989) kinase profiling in Jurkat lysate: AMPKa1 or AMPKa2; type: binding; conditions: for AMPKa1 or AMPKa2 Inhibition % at indicated screening concentration: screening concentration 1 μM
Summary of the method: as §1

[1] = calculated from percent inhibition of AX9989 labeling and the screening concentration
[2] = calculated from percent inhibition and screening concentration, AX9989 probe
[3] = screening concentration 1 μM, read-out: ERK5 Inhibition % at indicated screening concentration
[4] = screening concentration 1 μM, read-out: TAO2 Inhibition % at indicated screening concentration
[5] = screening concentration 1 μM, read-out: AurA Inhibition % at indicated screening concentration
[6] = screening concentration 1 μM, read-out: JAK1 Inhibition % at indicated screening concentration
[7] = screening concentration 1 μM, read-out: ACK Inhibition % at indicated screening concentration

T5 sequence (Q07912 whole entry): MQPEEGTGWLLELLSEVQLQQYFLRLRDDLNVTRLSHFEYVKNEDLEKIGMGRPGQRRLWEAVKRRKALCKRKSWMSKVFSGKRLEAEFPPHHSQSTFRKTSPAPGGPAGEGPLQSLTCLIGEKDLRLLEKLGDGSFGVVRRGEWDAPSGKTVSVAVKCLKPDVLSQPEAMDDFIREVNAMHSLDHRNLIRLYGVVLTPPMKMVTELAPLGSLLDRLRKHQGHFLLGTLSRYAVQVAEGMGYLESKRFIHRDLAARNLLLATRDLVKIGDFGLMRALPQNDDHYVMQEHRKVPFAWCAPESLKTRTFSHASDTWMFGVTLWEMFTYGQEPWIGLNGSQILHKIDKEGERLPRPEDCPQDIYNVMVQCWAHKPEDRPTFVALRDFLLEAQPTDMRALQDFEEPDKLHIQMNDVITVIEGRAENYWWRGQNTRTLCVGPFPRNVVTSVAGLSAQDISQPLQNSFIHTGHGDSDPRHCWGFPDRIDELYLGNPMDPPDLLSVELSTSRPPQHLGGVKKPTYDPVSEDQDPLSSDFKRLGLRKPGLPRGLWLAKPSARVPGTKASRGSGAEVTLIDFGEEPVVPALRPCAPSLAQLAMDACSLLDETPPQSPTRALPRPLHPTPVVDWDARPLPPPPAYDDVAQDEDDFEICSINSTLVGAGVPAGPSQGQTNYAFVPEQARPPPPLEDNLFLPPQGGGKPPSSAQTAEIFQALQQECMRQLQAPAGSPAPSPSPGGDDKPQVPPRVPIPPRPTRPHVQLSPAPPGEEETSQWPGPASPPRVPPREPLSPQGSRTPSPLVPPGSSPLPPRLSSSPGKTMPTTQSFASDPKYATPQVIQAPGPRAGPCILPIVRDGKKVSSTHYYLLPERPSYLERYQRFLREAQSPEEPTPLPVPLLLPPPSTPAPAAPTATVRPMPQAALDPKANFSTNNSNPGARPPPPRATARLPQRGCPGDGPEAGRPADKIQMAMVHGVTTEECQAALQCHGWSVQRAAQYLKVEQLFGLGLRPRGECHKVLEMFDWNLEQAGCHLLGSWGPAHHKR
T4 sequence (P23458 whole entry): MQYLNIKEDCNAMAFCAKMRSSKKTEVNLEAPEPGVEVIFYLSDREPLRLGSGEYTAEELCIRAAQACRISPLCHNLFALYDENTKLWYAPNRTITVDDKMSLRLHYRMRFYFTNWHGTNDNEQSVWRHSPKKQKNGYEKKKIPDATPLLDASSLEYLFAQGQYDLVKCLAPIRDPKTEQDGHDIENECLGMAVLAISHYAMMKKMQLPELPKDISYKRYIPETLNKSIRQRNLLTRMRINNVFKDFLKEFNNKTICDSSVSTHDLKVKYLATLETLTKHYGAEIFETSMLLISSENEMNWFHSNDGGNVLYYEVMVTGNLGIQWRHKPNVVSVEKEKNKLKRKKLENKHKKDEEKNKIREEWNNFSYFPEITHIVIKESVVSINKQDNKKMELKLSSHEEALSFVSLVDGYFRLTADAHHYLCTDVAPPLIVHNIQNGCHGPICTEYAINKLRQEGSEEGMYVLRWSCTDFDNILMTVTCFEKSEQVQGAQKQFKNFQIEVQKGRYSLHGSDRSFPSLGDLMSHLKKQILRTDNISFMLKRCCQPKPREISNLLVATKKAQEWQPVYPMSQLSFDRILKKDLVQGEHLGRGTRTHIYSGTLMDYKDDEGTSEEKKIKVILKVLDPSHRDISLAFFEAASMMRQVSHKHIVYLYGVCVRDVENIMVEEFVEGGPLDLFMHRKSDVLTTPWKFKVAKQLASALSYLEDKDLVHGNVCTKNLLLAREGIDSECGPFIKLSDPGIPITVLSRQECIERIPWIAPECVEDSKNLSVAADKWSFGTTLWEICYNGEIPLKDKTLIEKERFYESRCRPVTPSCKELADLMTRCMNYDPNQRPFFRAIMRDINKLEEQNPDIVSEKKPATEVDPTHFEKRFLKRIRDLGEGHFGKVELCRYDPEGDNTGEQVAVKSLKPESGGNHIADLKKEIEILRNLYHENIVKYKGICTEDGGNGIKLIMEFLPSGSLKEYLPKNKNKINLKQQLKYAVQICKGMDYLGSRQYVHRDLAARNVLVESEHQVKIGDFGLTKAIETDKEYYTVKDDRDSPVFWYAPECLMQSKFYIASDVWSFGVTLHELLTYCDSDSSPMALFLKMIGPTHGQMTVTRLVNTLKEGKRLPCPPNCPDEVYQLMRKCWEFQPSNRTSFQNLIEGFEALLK
T1 sequence (Q13164 whole entry): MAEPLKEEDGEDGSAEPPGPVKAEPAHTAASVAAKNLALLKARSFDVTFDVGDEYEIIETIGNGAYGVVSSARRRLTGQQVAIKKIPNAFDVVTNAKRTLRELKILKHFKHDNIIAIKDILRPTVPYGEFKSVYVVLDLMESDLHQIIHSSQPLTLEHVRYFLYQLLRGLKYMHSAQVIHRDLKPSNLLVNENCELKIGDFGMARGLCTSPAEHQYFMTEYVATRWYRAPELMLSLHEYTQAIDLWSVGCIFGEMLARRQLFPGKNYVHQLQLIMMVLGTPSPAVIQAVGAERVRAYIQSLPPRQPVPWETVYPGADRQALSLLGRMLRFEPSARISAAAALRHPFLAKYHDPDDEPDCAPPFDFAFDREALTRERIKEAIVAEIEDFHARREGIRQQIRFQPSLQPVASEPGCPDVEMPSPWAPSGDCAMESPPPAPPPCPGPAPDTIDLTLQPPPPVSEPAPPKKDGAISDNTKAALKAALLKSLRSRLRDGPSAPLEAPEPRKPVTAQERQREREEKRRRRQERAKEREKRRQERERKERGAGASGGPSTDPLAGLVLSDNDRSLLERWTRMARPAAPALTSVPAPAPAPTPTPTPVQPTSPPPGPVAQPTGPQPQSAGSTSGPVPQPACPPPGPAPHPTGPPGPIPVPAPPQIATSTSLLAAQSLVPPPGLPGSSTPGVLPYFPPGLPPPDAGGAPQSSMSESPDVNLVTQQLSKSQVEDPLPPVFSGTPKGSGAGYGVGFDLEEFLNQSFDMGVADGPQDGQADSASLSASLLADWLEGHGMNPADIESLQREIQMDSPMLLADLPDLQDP

IC50 (ERK5; [1]) | AurB or AurC Inhibition % at indicated screening concentration (AurB or AurC) | IC50 (ERK5; [2]) | inhibition at 1 µM (ERK5; [3]) | inhibition at 1 µM (TAO2; [4]) | inhibition at 1 µM (AurA; [5]) | inhibition at 1 µM (JAK1; [6]) | ABL or ARG Inhibition % at indicated screening concentration (ABL or ARG) | inhibition at 1 µM (ACK; [7]) | AMPKa1 or AMPKa2 Inhibition % at indicated screening concentration (AMPKa1 or AMPKa2) | SMILES | EC50 (human PBMCs) | also measured
101 to 500 nM |  |  |  |  |  |  |  |  |  | CCOc1cc(C(=O)N2CCN(C(=O)OC(C)(C)C)C[C@@H]2C)ccc1Nc1cc2c(cn1)N(C)C(=O)c1ccccc1N2C [Compound 50] | 2580 nM | Kinase inhibition % at indicated screening concentration: AurB or AurC (AurB or AurC; screening concentration 0.1 μM): E (E is ≦35%); inhibition at 0.1 µM (ERK5; screening concentration 0.1 μM, read-out: Kinase inhibition % at indicated screening concentration: ERK5): 35 to 50%; inhibition at 0.1 µM (TAO2; screening concentration 0.1 μM, read-out: Kinase inhibition % at indicated screening concentration: TAO2): ≤ 35%; inhibition at 0.1 µM (AurA; screening concentration 0.1 μM, read-out: Kinase inhibition % at indicated screening concentration: AurA): ≤ 35%; inhibition at 0.1 µM (JAK1; screening concentration 0.1 μM, read-out: Kinase inhibition % at indicated screening concentration: JAK1): ≤ 35%; Kinase inhibition % at indicated screening concentration: ABL or ARG (ABL or ARG; screening concentration 0.1 μM): E (E is ≦35%); inhibition at 0.1 µM (ACK; screening concentration 0.1 μM, read-out: Kinase inhibition % at indicated screening concentration: ACK): ≤ 35%; Kinase inhibition % at indicated screening concentration: AMPKa1 or AMPKa2 (AMPKa1 or AMPKa2; screening concentration 0.1 μM): E (E is ≦35%)
 | E (E is ≦35%) | > 500 nM | 35 to 50% | ≤ 35% | ≤ 35% | ≤ 35% | E (E is ≦35%) | ≤ 35% | E (E is ≦35%) | CCOc1cc(C(=O)N2CCN(C(C)=O)CC2)ccc1Nc1cc2c(cn1)N(C)C(=O)c1scnc1N2C [Compound T73] | > 10000 nM | 
 | D (D is >35% to ≦50%) | ≤ 50 nM | > 90% | ≤ 35% | ≤ 35% | ≤ 35% | E (E is ≦35%) | ≤ 35% | E (E is ≦35%) | CN1C(=O)c2ccccc2N(C)c2cc(Nc3ccc(C(=O)N4CCN(S(C)(=O)=O)CC4)cc3F)ncc21 [Compound T72] | 4250 nM | 
 | E (E is ≦35%) | ≤ 50 nM | > 90% | ≤ 35% | ≤ 35% | ≤ 35% | E (E is ≦35%) | ≤ 35% | E (E is ≦35%) | CCOc1cc(C(=O)N2CC[C@@H](N3CCN(C)CC3)C2)ccc1Nc1cc2c(cn1)N(C)C(=O)c1ccccc1N2C1CC1 [Compound T68] | 1400 nM | 
> 500 nM |  |  |  |  |  |  |  |  |  | COc1cc(C)c(Nc2cc3c(cn2)N(C)C(=O)c2ccccc2N3C)cn1 [Compound 116] | 4370 nM | Kinase inhibition % at indicated screening concentration: AurB or AurC (AurB or AurC; screening concentration 1.0 μM): E (E is ≦35%); inhibition at 1 µM (ERK5; screening concentration 1.0 μM, read-out: Kinase inhibition % at indicated screening concentration: ERK5): 50 to 75%; inhibition at 1 µM (TAO2; screening concentration 1.0 μM, read-out: Kinase inhibition % at indicated screening concentration: TAO2): ≤ 35%; inhibition at 1 µM (AurA; screening concentration 1.0 μM, read-out: Kinase inhibition % at indicated screening concentration: AurA): ≤ 35%; inhibition at 1 µM (JAK1; screening concentration 1.0 μM, read-out: Kinase inhibition % at indicated screening concentration: JAK1): ≤ 35%; Kinase inhibition % at indicated screening concentration: ABL or ARG (ABL or ARG; screening concentration 1.0 μM): E (E is ≦35%); inhibition at 1 µM (ACK; screening concentration 1.0 μM, read-out: Kinase inhibition % at indicated screening concentration: ACK): ≤ 35%; Kinase inhibition % at indicated screening concentration: AMPKa1 or AMPKa2 (AMPKa1 or AMPKa2; screening concentration 1.0 μM): E (E is ≦35%)
